This passage reports IC50 results from patent US20240376056A1, “PHENYL ACETAMIDE BASED IL-17A MODULATORS AND USES THEREOF” (DiCE Alpha, Inc., priority 2021, published 2024).

SMILES strings stand for the structures. pIC50: −log10 of the molar value. Bounds are passed on as bounds.

The experiment has as its target T1, IL-17A/A (Homo sapiens, UniProt Q16552).
T1 construct: purchased Genscript Z03228
T1 sequence (Q16552 24-155): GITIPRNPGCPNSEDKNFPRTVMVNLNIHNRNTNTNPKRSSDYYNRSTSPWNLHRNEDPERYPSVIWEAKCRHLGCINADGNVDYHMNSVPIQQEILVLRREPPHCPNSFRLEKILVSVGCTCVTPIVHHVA
As to the kind of experiment: HEK-Blue IL-17A/A inhibition assay (SEAP reporter). To be noted: HEK-Blue cells (HEK 293 expressing IL-17RA, IL-17RC, Act1); IL-17A/A stimulation; 20 hours; SEAP read at A630; 4-parameter fit. The class given is cell-based. The procedure:
The HEK-Blue #NC108637 […]. Cells were grown and prepared for assays according to the manufacturer's instructions. This cell line consists of HEK 293 cells that were designed to expressed IL-17R^A, IL-17RC, and the ActI adapter molecule, the combination of which. when stimulated by IL-17A/A activates a NFtcB promoter and drives expression of a recombinant Secreted Alkaline Phosphatase (SEAP) geneprotein. Media from the cells is then added to a development reagent (Quanti-Blue Substrate, Fisher #NC971 1613), and read at A630.
Compounds were titrated in DMSO. with a top final compound concentration of 10 uM, 1 uM, or 0.3 uM, and added to the cells immediately before adding IL-17A/A (Genscript #Z03228). The cells, compound, and IL-17A/A were then incubated for 20 hours before media was removed for SEAP analysis. The resulting inhibition curve was then analyzed using Graphpad Prism 7.0, and IC50 values were determined using a 4-parameter nonlinear fit. DMSO was added to a universal final concentration of 0.1% to optimze background.

As for `CCn1nccc1C(=O)N[C@H](C(=O)Nc1c(F)cc(C(C)C(=O)NCC(F)(F)F)cc1F)C(C1CC1)C1CC1` (single isomer, unassigned) [Compound 170], the pIC50 was < 6.00. The figure for `CCn1nccc1C(=O)N[C@H](C(=O)Nc1c(F)cc(C(C)C(=O)NCC(F)(F)F)cc1F)C(C1CC1)C1CC1` (single isomer, unassigned) [Compound 171] is 6.00 to 7.00; for `Cc1cc(NC(=O)[C@@H](NC(=O)c2ccnn2C(C)C)C(C2CC2)C2CC2)c(F)cc1C(C)C(=O)N1CC(O)CC1C(F)(F)F` (single isomer, unassigned) [Compound 172] it is 6.00 to 7.00. Under `Cc1cc(NC(=O)[C@@H](NC(=O)c2ccnn2C(C)C)C(C2CC2)C2CC2)c(F)cc1C(C)C(=O)N1CC(O)CC1C(F)(F)F` (single isomer, unassigned) [Compound 173] stands > 7.00.

Consider `COc1cc(NC(=O)[C@@H](NC(=O)c2ccnn2C(C)C)C(C2CC2)C2CC2)c(F)cc1C(C)C(=O)NC(CO)C(F)(F)F` (single isomer, unassigned) [Compound 180], for which the pIC50 is > 7.00.

In the case of `COc1cc(NC(=O)[C@@H](NC(=O)c2ccnn2C(C)C)C(C2CC2)C2CC2)c(F)cc1C(C)C(=O)NC(CO)C(F)(F)F` (single isomer, unassigned) [Compound 181], the pIC50 was 6.00 to 7.00. Regarding `COc1cc(NC(=O)[C@@H](NC(=O)c2ccnn2C(C)C)C(C2CC2)C2CC2)c(F)cc1C(C)C(=O)N1CC(O)CC1C(F)(F)F` (single isomer, unassigned) [Compound 182], the negative logarithm of the IC50 (pIC50) is < 6.00. For the compound `COc1cc(NC(=O)[C@@H](NC(=O)c2ccnn2C(C)C)C(C2CC2)C2CC2)c(F)cc1C(C)C(=O)N1CC(O)CC1C(F)(F)F` (single isomer, unassigned) [Compound 183], the pIC50 was < 6.00. In the case of `CC(C(=O)NCC(F)(F)F)c1cc(F)c(NC(=O)[C@@H](NC(=O)c2ccnn2C(C)C)C(C2CC2)C2CC2)cc1OC(F)(F)F` (single isomer, unassigned) [Compound 185], the pIC50 is > 7.00.

On to `CC(C(=O)NCC(F)(F)F)c1cc(F)c(NC(=O)[C@@H](NC(=O)c2ccnn2C(C)C)C(C2CC2)C2CC2)cc1NC(F)(F)F` (single isomer, unassigned) [Compound 186], for which the pIC50 is 6.00 to 7.00. Under `CC(C)n1nccc1C(=O)N[C@H](C(=O)Nc1ccc(C(N)C(=O)NCC(F)(F)F)cc1F)C(C1CC1)C1CC1` (single isomer, unassigned) [Compound 189] stands < 6.00; under `CC(C)n1nccc1C(=O)N[C@H](C(=O)Nc1ccc(C(N)C(=O)NCC(F)(F)F)cc1F)C(C1CC1)C1CC1` (single isomer, unassigned) [Compound 191], 6.00 to 7.00; under `Cc1cc(NC(=O)[C@@H](NC(=O)c2ccnn2C(C)C)C(C2CC2)C2CC2)c(F)cc1C(C)C(=O)N1CC(O)CC1C(F)(F)F` (single isomer, unassigned) [Compound 199], > 7.00. Under `Cc1cc(NC(=O)[C@@H](NC(=O)c2ccnn2C(C)C)C(C2CC2)C2CC2)c(F)cc1C(C)C(=O)N1CC(O)CC1C(F)(F)F` (single isomer, unassigned) [Compound 200] stands 6.00 to 7.00. Under `COc1cc(NC(=O)[C@@H](NC(=O)c2ccnn2C(C)C)C(C2CC2)C2CC2)c(F)cc1C(C)C(=O)N1CC(O)CC1C(F)(F)F` (single isomer, unassigned) [Compound 212] stands > 7.00. As to `COc1cc(NC(=O)[C@@H](NC(=O)c2ccnn2C(C)C)C(C2CC2)C2CC2)c(F)cc1C(C)C(=O)N1CC(O)CC1C(F)(F)F` (single isomer, unassigned) [Compound 213], the pIC50 was 6.00 to 7.00. Under `CC(C(=O)NCC(F)(F)F)c1cc(F)c(NC(=O)[C@@H](NC(=O)c2ccnn2C(C)C)C2CCC(F)(F)CC2)cc1OC(F)(F)F` (single isomer, unassigned) [Compound 219] stands 6.00 to 7.00; under `CC(C(=O)NCC(F)(F)F)c1cc(F)c(NC(=O)[C@@H](NC(=O)c2ccnn2C(C)C)C2CCC(F)(F)CC2)cc1OC(F)(F)F` (single isomer, unassigned) [Compound 220], < 6.00; under `CC(C(=O)NC1CCC1(F)F)c1cc(F)c(NC(=O)[C@@H](NC(=O)c2ccnn2C(C)C)C(C2CC2)C2CC2)cc1C(F)(F)F` (single isomer, unassigned) [Compound 230], 6.00 to 7.00.

Regarding `CC(C(=O)NC1CCC1(F)F)c1cc(F)c(NC(=O)[C@@H](NC(=O)c2ccnn2C(C)C)C(C2CC2)C2CC2)cc1C(F)(F)F` (single isomer, unassigned) [Compound 231], the pIC50 is 6.00 to 7.00. Under `CCn1nccc1C(=O)N[C@H](C(=O)Nc1cc(C(F)(F)F)c(C(C)C(=O)NC(CO)C(F)(F)F)cc1F)C(C1CC1)C1CC1` (single isomer, unassigned) [Compound 240] stands > 7.00. For `CCn1nccc1C(=O)N[C@H](C(=O)Nc1cc(C(F)(F)F)c(C(C)C(=O)NC(CO)C(F)(F)F)cc1F)C(C1CC1)C1CC1` (single isomer, unassigned) [Compound 241], the pIC50 is < 6.00.

For the compound `CC(C(=O)NCC(F)(F)F)c1cc(F)c(NC(=O)[C@@H](NC(=O)c2ccnn2C(C)C)C(C2CC2)C2CC2)cc1Nc1ccccn1` (single isomer, unassigned) [Compound 261], the pIC50 is < 6.00. Regarding `CC(C(=O)NCC(F)(F)F)c1cc(F)c(NC(=O)[C@@H](NC(=O)c2ccnn2C(C)C)C(C2CC2)C2CC2)cc1Nc1ccccn1` (single isomer, unassigned) [Compound 262], the pIC50 is < 6.00. Under `CCn1nccc1C(=O)N[C@H](C(=O)Nc1ccc(CC(=O)N(C)CC(F)(F)F)cc1F)C1CCCCCC1` [Compound 1, (S)-N-(1-cycloheptyl-2-((2-fluoro-4-(2-(methyl(2,2,2-trifluoroethyl)amino)-2-oxoethyl)phenyl)amino)-2-oxoethyl)-1-ethyl-1H-pyrazole-5-carboxamide] stands 6.00 to 7.00; under `CCn1nccc1C(=O)N[C@H](C(=O)Nc1ccc(CC(=O)NCC(F)(F)F)cc1F)C1CCCCCC1` [Compound 2, (S)-N-(1-cycloheptyl-2-((2-fluoro-4-(2-oxo-2-((2,2,2-trifluoroethyl)amino)ethyl)phenyl)amino)-2-oxoethyl)-1-ethyl-1H-pyrazole-5-carboxamide], 6.00 to 7.00; under `CCn1nccc1C(=O)N[C@H](C(=O)Nc1ccc(CC(=O)N(C)C2(C(F)(F)F)CC2)cc1F)C1CCCCCC1` [Compound 5, (S)-N-(1-cycloheptyl-2-((2-fluoro-4-(2-(methyl(1-(trifluoromethyl)cyclopropyl)amino)-2-oxoethyl)phenyl)amino)-2-oxoethyl)-1-ethyl-1H-pyrazole-5-carboxamide], < 6.00. For the compound `CCn1nccc1C(=O)N[C@H](C(=O)Nc1ccc(C(C)(C)C(=O)NCC(F)(F)F)cc1F)C1CCCCCC1` [Compound 7, (S)-N-(1-cycloheptyl-2-((2-fluoro-4-(2-methyl-1-oxo-1-((2,2,2-trifluoroethyl)amino)propan-2-yl)phenyl)amino)-2-oxoethyl)-1-ethyl-1H-pyrazole-5-carboxamide], the pIC50 was 6.00 to 7.00.

As for `CCn1nccc1C(=O)N[C@H](C(=O)Nc1ccc([C@H](C)C(=O)N(CC2CC2)CC(F)(F)F)cc1F)C1CCCCCC1` [Compound 8, N-((S)-1-cycloheptyl-2-((4-((S)-1-((cyclopropylmethyl)(2,2,2-trifluoroethyl)amino)-1-oxopropan-2-yl)-2-fluorophenyl)amino)-2-oxoethyl)-1-ethyl-1H-pyrazole-5-carboxamide], the pIC50 is > 7.00. The figure for `CCn1nccc1C(=O)N[C@H](C(=O)Nc1ccc([C@H](C)C(=O)N2CCC[C@@H]2C(F)(F)F)cc1F)C(C1CC1)C1CC1` [Compound 9, N-((S)-1,1-dicyclopropyl-3-((2-fluoro-4-((S)-1-oxo-1-((R)-2-(trifluoromethyl)pyrrolidin-1-yl)propan-2-yl)phenyl)amino)-3-oxopropan-2-yl)-1-ethyl-1H-pyrazole-5-carboxamide] is < 6.00. In the case of `CCn1nccc1C(=O)N[C@H](C(=O)Nc1ccc([C@H](C)C(=O)N(CCO)CC(F)(F)F)cc1F)C(C1CC1)C1CC1` [Compound 10, N-((S)-1,1-dicyclopropyl-3-((2-fluoro-4-((S)-1-((2-hydroxyethyl)(2,2,2-trifluoroethyl)amino)-1-oxopropan-2-yl)phenyl)amino)-3-oxopropan-2-yl)-1-ethyl-1H-pyrazole-5-carboxamide], the pIC50 was 6.00 to 7.00. As for `CCn1nccc1C(=O)N[C@H](C(=O)Nc1ccc([C@H](C)C(=O)N2CCC[C@H]2C(F)(F)F)cc1F)C(C1CC1)C1CC1` [Compound 11, N-((S)-1,1-dicyclopropyl-3-((2-fluoro-4-((S)-1-oxo-1-((S)-2-(trifluoromethyl)pyrrolidin-1-yl)propan-2-yl)phenyl)amino)-3-oxopropan-2-yl)-1-ethyl-1H-pyrazole-5-carboxamide], the pIC50 was > 7.00. As to `CCn1nccc1C(=O)N[C@H](C(=O)Nc1ccc([C@H](C)C(=O)NC(CCO)C(F)(F)F)cc1F)C(C1CC1)C1CC1` (stereo partly drawn) [Compound 12, N-((2S)-1,1-dicyclopropyl-3-((2-fluoro-4-((2S)-1-oxo-1-((1,1,1-trifluoro-4-hydroxybutan-2-yl)amino)propan-2-yl)phenyl)amino)-3-oxopropan-2-yl)-1-ethyl-1H-pyrazole-5-carboxanude], the pIC50 is 6.00 to 7.00.

The term pIC50 denotes −log10 of the IC50, conventionally taken in molar units.
